Values quoted from earlier work, collected in patent US4981867A, “Treatment of tremor using compounds that depress calcium currents in thalamic and other central nervous system neurons” (The Board of Trustees of the Leland Stanford Junior …, priority 1989, dated 1991).

Test system: essential-familial tremor
Details: stated as known in background

SMILES	suppression of essential-familial tremor
CCC1(c2ccccc2)C(=O)NCNC1=O [primidone]	can be suppressed
CC(C)NCC(O)COc1cccc2ccccc12 (centres unmarked) [propranolol]	can be suppressed
